From patent publication US11028078B2 (The Johns Hopkins University, priority 2011, dated 2021)
pIC50: −log10 of the molar value. Like-named read-outs stand apart in the source and are kept apart here.

Columns and labels:
[1] = molecular target: T1, CYP3A4 (Homo sapiens, UniProt P08684); assay: CYP3A4 enzyme assay (Vivid CYP3A4 Green Screening Kit); format: in vitro ADME; conditions: % enzyme inhibition at 1 μM drug / % enzyme inhibition at 1 μM itraconazole
T1 construct: purchased ThermoFisher P2857; host or cells: baculosomes
Protocol: And CYP3A4 inhibition was initially determined using a cell-free fluorescence-based assay at a final concentration of 1 μM (Table 7).
CYP3A4 enzyme assay. CYP3A4 enzyme activity was tested using Vivid™ CYP3A4 Green Screening Kit (ThermoFisher, #P2857) using the manufacturer's protocol. Briefly, CYP3A4 baculosomes and drugs were incubated 10 min at 37° C. Then Vivid® Substrates were added and the fluorescence (ex/em:485/520) were read every 1 min for 60 minute.

[2] = molecular target: T1, CYP3A4; assay: as above; format: in vitro ADME
[3] = tested on: HUVEC; assay: HUVEC proliferation assay ([3H]thymidine incorporation); format: cell-based, human; conditions: HUVEC; for IC50: 3H thymidine incorporation, in μM, read-out: Proliferation IC50
In short: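 Pooled HUVEC at passage eight or lower, grown in EGM-2 medium; proliferation measured by [3H]thymidine incorporation as in an earlier published protocol.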

[4] = tested on: Gli1 transcript; assay: Quantification of Gli1 transcript by TaqMan analysis in MB cells (Hh pathway); format: cell-based, mouse
In short: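 After drug exposure, total RNA extracted from MB cells, reverse transcribed, and Gli1 quantified by TaqMan qPCR with mouse Gli-1 and actin primer/probe sets. Values expressed as fold induction relative to control by the 2^−ΔΔCt method, normalized to actin.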

[5] = tested on: VEGFR2; assay: VEGFR2 glycosylation in HUVEC (Western blot scoring); format: cell-based, human; conditions: VEGFR2 hypoglycosylation score in HUVEC, 2 μM, 24 h; further: key: ++: robust; +: intermediate; −: absent
[6] = tested on: HUVEC; assay: Filipin staining of intracellular cholesterol (NPC phenotype); format: cell-based, human; conditions: 0.1 μM, 0.2 μM for 24 h in FIG. 14 legend
Protocol: Intracellular cholesterol was visualized using filipin staining and fluorescent images were captured under a confocal microscope.
(§1) We thus determined whether compound 248 shared the same mechanism with itraconazole. The intracellular cholesterol was detected using the cholesterol-binding fluorescent dye filipin. […] It is known that AMPK activation leads to mTOR inhibition.
Filipin staining. 2000 HUVECs were plated in chamber slide with 1 ml media and allowed to settle overnight. cCells were treated with 0.1 uM drug or DMSO for 14 hours. The the cells were fixed with 4% paraformaldehyde for 15 min. After washed, cells were incubated with 500 ul 50 ug/ml filipin solution for 1 hour in the dark. Then the cells were washed twice with PBS, mounted and covered with coverslip. The images were taken using confocal microscope under 360/460 nm.

[7] = tested on: HUVEC tube formation; assay: HUVEC tube formation assay on Matrigel; format: cell-based; conditions: Homo sapiens, 20 h, read-out: inhibition of HUVEC tube formation (total tube length)
[8] = tested on: AMPKα, ACC1, mTOR, p70 S6 Kinase phosphorylation; assay: Western blot of AMPK/mTOR signaling in HUVEC; format: cell-based, human; conditions: 24 h
Protocol: Cell lysates were subjected to Western blot.
as §1
Western blot. […] Then cells were lysed using RIPA buffer and the protein concentration were measured and normalized. After electrophoresis and transfer onto 0.45 um nitrocellulose membranes, the membranes were bolted with 5% BSA for 1 h and then incubated overnight at 4° C. Secondary antibody was applied to each membrane for 1 hour. Bolts were imaged using Syngene PXi imaging system after adding chemiluminescent substrate. The following antibodies were used for the assay: AMPKα (1:1,000, cell signaling, #2532s), phosphor-AMPKα (1:1,000, cell signaling #2535s), ACC (1:1,000, cell signaling #3662s), phosphor-ACC (1:1,000, cell signaling, #3661s), mTOR (1:1,000, cell signaling, #2972S), phosphor-mTOR (1:1,000, cell signaling, #9234s), p70 S6 Kinase (1:1,000, senta cruz, #sc-8418), phosphor-p70 S6 Kinase (1:1,000, cell signaling, #3662s), anti-Rabbit IgG (1:10000, GE lifesciences, #NA934V).

T1 sequence (P08684 whole entry): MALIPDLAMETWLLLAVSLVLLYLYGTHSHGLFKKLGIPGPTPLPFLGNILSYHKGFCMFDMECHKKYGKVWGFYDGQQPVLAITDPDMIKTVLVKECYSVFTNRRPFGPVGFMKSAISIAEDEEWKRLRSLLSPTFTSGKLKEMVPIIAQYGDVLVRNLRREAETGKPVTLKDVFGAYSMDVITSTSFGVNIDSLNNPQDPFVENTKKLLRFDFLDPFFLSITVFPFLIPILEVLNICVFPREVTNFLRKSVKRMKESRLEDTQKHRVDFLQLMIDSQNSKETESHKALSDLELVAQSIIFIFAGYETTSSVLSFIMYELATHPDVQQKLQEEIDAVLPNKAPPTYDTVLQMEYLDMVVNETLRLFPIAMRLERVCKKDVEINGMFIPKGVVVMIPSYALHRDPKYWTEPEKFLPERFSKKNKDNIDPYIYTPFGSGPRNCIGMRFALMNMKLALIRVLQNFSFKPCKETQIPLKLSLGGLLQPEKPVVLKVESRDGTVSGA

| Compound | CYP3A4 Inhibition (compared to intracozanole at 1 μm) [1] | IC50 ([3]; Homo sapiens) [µM] | further results |
| --- | --- | --- | --- |
| CCC(C)n1ncn(-c2ccc(N3CCN(c4ccc(OC[C@@H]5CO[C@@](CC)(c6ccc(Cl)cc6Cl)O5)cc4)CC3)cc2)c1=O (stereo partly drawn) [Compound 259, 1-sec-butyl-4-(4-(4-(4-(((2R,4R)-2-(2,4-dichlorophenyl)-2-ethyl-1,3-dioxolan-4-yl)methoxy)phenyl)piperazin-1-yl)phenyl)-1H-1,2,4-triazol-5(4H)-one] | No inhibition | 0.314 | CYP3A4 inhibition in dose response assays ([2]; FIG. 12, higher concentrations): totally lost CYP3A4 inhibition |
| CCC(C)n1ncn(-c2ccc(N3CCN(c4ccc(OCC5COC(Cn6cncn6)(c6ccc(Cl)cc6Cl)O5)cc4)CC3)cc2)c1=O (stereo not shown) [Itraconazole, reference compound] | – | – | Gli I Inhibition (IC90 Prolif. dose) ([4]; Gli1 transcript fold induction score, MB cells exposed 24 h at the IC90 for MB proliferation): ++ (≤0.15); inhibition of Gli1 transcript levels ([4]; established MB cultures, FIG. 9B): Dose-dependent inhibition; Glycosylation (2 μM dose) [5]: ++; NPC phenotype (cholesterol accumulation in late endosome/lysosome) [6]: induce NPC phenotype; inhibition at 5 µM [7]: 45% |
| CCC(C)n1ncn(-c2ccc(N3CCN(c4ccc(OC[C@@H]5CO[C@@](Cn6cnc(C)n6)(c6ccc(Cl)cc6Cl)O5)cc4)CC3)cc2)c1=O (stereo partly drawn) [Compound 250, 1-sec-butyl-4-(4-(4-(4-(((2S,4R)-2-(2,4-dichlorophenyl)-2-((3-methyl-1H-1,2,4-triazol-1-yl)methyl)-1,3-dioxolan-4-yl)methoxy)phenyl)piperazin-1-yl)phenyl)-1H-1,2,4-triazol-5(4H)-one] | 0.36 | 0.272 | pIC50 ([3]; Homo sapiens, read-out: IC50 for inhibition of HUVEC proliferation): 6.57 |
| CCC(C)n1ncn(-c2ccc(N3CCN(c4ccc(OC[C@@H]5CO[C@@](Cn6ncnn6)(c6ccc(Cl)cc6Cl)O5)cc4)CC3)cc2)c1=O (stereo partly drawn) [Compound 249, 4-(4-(4-(4-(((2S,4R)-2-((2H-tetrazol-2-yl)methyl)-2-(2,4-dichlorophenyl)-1,3-dioxolan-4-yl)methoxy)phenyl)piperazin-1-yl)phenyl)-1-sec-butyl-1H-1,2,4-triazol-5(4H)-one] | 0.2 | 0.102 | Proliferation (IC50/IC50 Itra) ([3]; Table 7, relative to itraconazole): 0.6 |
| CCC(C)n1ncn(-c2ccc(N3CCN(c4ccc(OC[C@@H]5CO[C@@](Cn6cnc(C)c6)(c6ccc(Cl)cc6Cl)O5)cc4)CC3)cc2)c1=O (stereo partly drawn) [Compound 238, 1-sec-butyl-4-(4-(4-(4-(((2S,4R)-2-(2,4-dichlorophenyl)-2-((4-methyl-H-imidazol-1-yl)methyl)-1,3-dioxolan-4-yl)methoxy)phenyl)piperazin-1-yl)phenyl)-1H-1,2,4-triazol-5(4H)-one] | 1.18 | 0.102 | – |
| CCC(C)n1ncn(-c2ccc(N3CCN(c4ccc(OC[C@@H]5CO[C@@](Cn6nnnc6C)(c6ccc(Cl)cc6Cl)O5)cc4)CC3)cc2)c1=O (stereo partly drawn) [Compound 252, 1-sec-butyl-4-(4-(4-(4-(((2S,4R)-2-(2,4-dichlorophenyl)-2-((5-methyl-1H-tetrazol-1-yl)methyl)-1,3-dioxolan-4-yl)methoxy)phenyl)piperazin-1-yl)phenyl)-1H-1,2,4-triazol-5(4H)-one] | 0.08 | 0.101 | – |
| CCC(C)n1ncn(-c2ccc(N3CCN(c4ccc(OC[C@@H]5CO[C@@](Cn6cc(C)nc6C)(c6ccc(Cl)cc6Cl)O5)cc4)CC3)cc2)c1=O (stereo partly drawn) [Compound 240, 1-(sec-butyl)-4-(4-(4-(4-(((2S,4R)-2-(2,4-dichlorophenyl)-2-((2,4-dimethyl-1H-imidazol-1-yl)methyl)-1,3-dioxolan-4-yl)methoxy)phenyl)piperazin-1-yl)phenyl)-1H-1,2,4-triazol-5(4H)-one] | 0.45 | 0.492 | – |
| CCC(C)n1ncn(-c2ccc(N3CCN(c4ccc(OC[C@@H]5CO[C@@](Cn6nnnc6-c6ccccc6)(c6ccc(Cl)cc6Cl)O5)cc4)CC3)cc2)c1=O (stereo partly drawn) [Compound 253, 1-sec-butyl-4-(4-(4-(4-(((2S,4R)-2-(2,4-dichlorophenyl)-2-((5-phenyl-1H-tetrazol-1-yl)methyl)-1,3-dioxolan-4-yl)methoxy)phenyl)piperazin-1-yl)phenyl)-1H-1,2,4-triazol-5(4H)-one] | 0.22 | 0.119 | – |
| CCC(C)n1ncn(-c2ccc(N3CCN(c4ccc(OC[C@@H]5CO[C@@](Cn6ccnc6-c6ccccc6)(c6ccc(Cl)cc6Cl)O5)cc4)CC3)cc2)c1=O (stereo partly drawn) [Compound 246, 1-sec-butyl-4-(4-(4-(4-(((2S,4R)-2-(2,4-dichlorophenyl)-2-((2-phenyl-1H-imidazol-1-yl)methyl)-1,3-dioxolan-4-yl)methoxy)phenyl)piperazin-1-yl)phenyl)-1H-1,2,4-triazol-5(4H)-one] | 0.27 | 0.136 | – |
| CCC(C)n1ncn(-c2ccc(N3CCN(c4ccc(OC[C@@H]5CO[C@@](Cn6cnnn6)(c6ccc(Cl)cc6Cl)O5)cc4)CC3)cc2)c1=O (stereo partly drawn) [Compound 248, 4-(4=(4-(4-(((2S,4R)-2-((1H-tetrazol-1-yl)methyl)-2-(2,4-dichlorophenyl)-1,3-dioxolan-4-yl)methoxy)phenyl)piperazin-1-yl)phenyl)-1-sec-butyl-1H-1,2,4-triazol-5(4H)-one] | 0.02 | – | pIC50 ([2]; dose response, FIG. 12, read-out: CYP3A4 inhibition IC50): < 4.70; NPC phenotype (cholesterol accumulation in late endosome/lysosome) [6]: induced NPC phenotype; phosphorylation of AMPKα at Thr172 ([8]; 0.01-1 μM, dose-dependent): increased; phosphorylation of acetyl CoA carboxylase 1 (ACC1) [8]: increased; phosphorylation of mTOR [8]: decrease; phosphorylation of p70 S6 Kinase (S6K) [8]: decrease |
